Laboratory results reported in the NIST ThermoML archive (doi:10.1021/je0255980).
Values joined by “and” are separate entries in the source; they are usually repeats but may differ in a detail not shown here. Equal entries are not always repeated.

Conditions: Liquid

CCCCCOC(C)(C)CC(C)(C)C [pentane, 2-pentoxy-2,4,4-trimethyl-]
Conditions	vapor or sublimation pressure [kPa]
277.5 K	0.0037
279.5 K	0.0044
281.5 K	0.0052
283.5 K	0.0062
285.6 K	0.0073
288.6 K	0.0095
291.6 K	0.0124
294.7 K	0.0155
297.7 K	0.0194
300.7 K	0.0247
303.2 K	0.03

CCCOC(C)(C)CC(C)(C)C [pentane, 2-propoxy-2,4,4-trimethyl-]
Conditions	vapor or sublimation pressure [kPa]
274.3 K	0.0336
277.3 K	0.0443
278.2 K	0.0491
280.2 K	0.058
283.4 K	0.07
286.2 K	0.0913
289.3 K	0.1179
292.3 K	0.1404
294.4 K	0.1616
296.3 K	0.1858
297.4 K	0.2008
297.8 K	0.2103
298.3 K	0.2196
299.3 K	0.2293
300.3 K	0.2411
301.2 K	0.2557
302.2 K	0.2825
303.2 K	0.2956
304.3 K	0.3231
305.2 K	0.3294
306.2 K	0.3595
307.2 K	0.382
308.2 K	0.3898

CCOC(C)(C)CC(C)(C)C [ethyl 1,1,3,3-tetramethylbutyl ether]
Conditions	vapor or sublimation pressure [kPa]
274.3 K	0.0913
277.2 K	0.1201
280.1 K	0.1414
283.2 K	0.1829
286.1 K	0.2218
289.2 K	0.2772
292.2 K	0.339
295.2 K	0.4146
298.2 K	0.5117
301.2 K	0.6018

CCCCOC(C)(C)CC(C)(C)C [butyl 1,1,3,3-tetramethylbutyl ether]
Conditions	vapor or sublimation pressure [kPa]
278.3 K	0.0128
281.3 K	0.0165
284.3 K	0.0206
287.3 K	0.0269
290.3 K	0.0324
293.3 K	0.0413
296.3 K	0.053
299.2 K	0.0654
302.2 K	0.0797
305.2 K	0.1003
308.2 K	0.1155
311.2 K	0.1474
314.2 K	0.1741

COC(C)(C)CC(C)(C)C [methyl 1,1,3,3-tetramethylbutyl ether]
Conditions	vapor or sublimation pressure [kPa]
276.2 K	0.1656
277.3 K	0.1859
278.3 K	0.1958
280.3 K	0.2383
283.2 K	0.2818
283.3 K	0.2759
286.3 K	0.356
288.1 K	0.3919
289.3 K	0.4126
292.3 K	0.5102
293.3 K	0.5636
295.2 K	0.6069
298 K	0.7478
298.2 K	0.7352
301.2 K	0.8887
303.2 K	1.022
304.2 K	1.07
308 K	1.339

CCCOC(C)(C)CC [1,1-dimethylpropyl propyl ether]
Conditions	vapor or sublimation pressure [kPa]
274.2 K	0.4002
276.2 K	0.4448
278.1 K	0.5329
280.2 K	0.6121
282.2 K	0.7161
284.2 K	0.7938
285.1 K	0.8034
287.3 K	0.9974
290.3 K	1.199
293.3 K	1.434
296.2 K	1.799
299.2 K	2.072
302.2 K	2.332

CCOC(C)(C)CC [1,1-dimethylpropyl ethyl ether]
Conditions	vapor or sublimation pressure [kPa]
274.2 K	1.413
276.2 K	1.614
278.2 K	1.821
280.2 K	2.055
282.2 K	2.341
284.2 K	2.67
287.2 K	3.214
290.2 K	3.744
293.2 K	4.439
296.2 K	5.272
299.2 K	6.128
302.2 K	7.186

CC(C)COC(C)(C)C [isobutyl tert-butyl ether]
Conditions	vapor or sublimation pressure [kPa]
273.3 K	0.6788
275.4 K	0.7463
276.4 K	0.7981
278.5 K	0.9
278.6 K	0.938
280.4 K	0.9803
282.5 K	1.207
283.5 K	1.362
284.6 K	1.398
287.6 K	1.664
288.4 K	1.769
290.6 K	1.996
293.4 K	2.354
293.6 K	2.439
295.6 K	2.686
298.4 K	3.187
298.7 K	3.146
301.8 K	3.723
303.4 K	4.026
304.8 K	4.451
308.4 K	5.224

CCC(C)(C)OC [2-methoxy-2-methylbutane]
Conditions	vapor or sublimation pressure [kPa]
274.2 K	2.693
276.2 K	2.998
278.2 K	3.315
280.2 K	3.8
282.8 K	4.422
283.8 K	4.678
287.8 K	5.69
292.9 K	7.603
297.8 K	9.142
302.8 K	12.31
307.8 K	14.55

CCCCOC(C)(C)CC [butyl 1,1-dimethylpropyl ether]
Conditions	vapor or sublimation pressure
274.2 K	0.1111 kPa
276.2 K	0.1278 kPa
278.2 K	0.1602 kPa and 0.1508 kPa
281.3 K	0.1842 kPa
283.2 K	0.2344 kPa and 0.2179 kPa
285.2 K	0.2509 kPa
286.2 K	0.2632 kPa
288.2 K	0.3232 kPa
290.2 K	0.3551 kPa
293.2 K	0.4784 kPa and 0.4372 kPa
296.2 K	0.5522 kPa
298.2 K	0.6658 kPa and 0.6132 kPa
301.2 K	0.7443 kPa
303.2 K	0.901 kPa
304.2 K	0.9012 kPa
308.2 K	1.199 kPa

CCCCCCOC(C)(C)CC(C)(C)C [pentane, 2-hexoxy-2,4,4-trimethyl-]
Conditions	vapor or sublimation pressure [kPa]
295.8 K	0.0053
298.8 K	0.0069
301.9 K	0.0086
304.9 K	0.0111
308 K	0.0141
311 K	0.0162
314.1 K	0.0215
317.1 K	0.0255
320.1 K	0.0321
323.1 K	0.0406
326.2 K	0.0502
